Results reported in patent US11458132B2, “Quinolin-2(1H)-one inhibitors of Late SV40 Factor” (TRUSTEES OF BOSTON UNIVERSITY, priority 2020, dated 2022).

Legend:
FH-B cells [1] = assay: Cell spreading area / cell compaction by microscopy; assay type: cell-based, human
Procedure: (§1) Cells were washed as before, treated with Phalloidin-iFluor 488 Reagent (abcam, ab176753) for 1 hour in 1-5% BSA in PBS, followed by Hoechst 33342 (Thermo Fisher Scientific, H3570) for 5 minutes. Mounting medium (Fisher Scientific, P10144) and cover slips were applied onto dried cells. Individually discernible cells were imaged on an Olympus Fluoview 10i. Using ImageJ, the phalloidin channel was thresholded and area and circularity values were measured and integrated into swarmplots using Python's seaborn library.
For time lapse microscopy, FH-B cells in high μ-dishes were incubated with CellBrite™ Steady Membrane stain (Biotium, 30108-T) for 30-40 minutes in the environmental chamber of a Nikon C2 Si microscope at 37° C. and 5% CO2. Treatments were added to the cells through a syringe to reach final concentrations of 4 μM FQI1 or 0.01% DMSO. Immediately thereafter, a time-lapse series was acquired by imaging every 30 seconds for 30 minutes at 20× magnification.

[2] = system: Wnt signaling in HCT-116 cells; assay: Wnt signaling assay (β-catenin-responsive luciferase reporter); assay type: cell-based; conditions: overnight
Procedure: Wnt signaling assay: The CRC cells stably expressing β-catenin-responsive promoter tethered to a luciferase reporter (pBARLS) or a mutant construct (pfuBARLS), as described previously, were seeded in 96-well plates. After 48 h of transfection, luciferase assays was performed using the Dual-Luciferase Kit (Promega) and normalized using protein content determined by the Bradford assay (Bio-Rad) as described previously^26-28.

RPE cells [3] = assay: Cell cycle analysis by flow cytometry at end of wound healing; assay type: cell-based; conditions: 4 μM FQI1, 12-hour time-point
Procedure: Cell cycle analysis by flow cytometry: After trypsinization, subsequent steps prior to staining were performed at 4° C. Cells in PBS were transferred dropwise into ethanol (final concentration of 70%) for overnight incubation. Fixed cells were washed with PBS and then incubated in 50 μg/ml propidium iodide and 10 μg/ml RNase A in PBS for 45 minutes at room temperature. After passage through a cell strainer, cell fluorescence was measured using a Becton Dickinson FACSCalibur. Ten thousand events were counted per sample. Histogram plots were generated using FlowJo.
All the samples, including a “0 hour” synchronized and an asynchronous sample, were harvested and prepared for flow cytometry, as described above. The proportion of cells in their respective cell cycle phases was determined by applying the Dean-Jett-Fox model in the FlowJo Cell Cycle analysis tool.

RPE cells [4] = assay: Cell spreading area and circularity by microscopy; assay type: cell-based
Procedure: as §1

RPE cells [5] = assay: Microtubule sedimentation assay; assay type: cell-based
Procedure: (§2) Cell lysate preparation: For microtubule sedimentation assays, cells were treated as indicated in the figure legends, washed with PBS and incubated in 250 μl of microtubule sedimentation assay lysis buffer (100 mM PIPES pH 6.8, 2 M glycerol, 2 mM EGTA, 5 mM MgCl2, 0.1% Triton X-100) supplemented with 1 μM taxol, protease inhibitor cocktail (1:200, Abcam, ab201111) and phosphatase inhibitor cocktail (1:100, Abcam, ab201115) for 20 minutes at 37° C. Two hundred μl of scraped lysate was centrifuged at 21,000×g for 10 minutes at room temperature. Supernatants were saved as soluble fractions. Pellets were resuspended in 200 μl RIPA buffer (50 mM Tris HCl pH 8.0, 150 mM NaCl, 1% IGEPAL CA630, 0.05% deoxycholic acid) supplemented with 1.05% SDS, protease inhibitor cocktail (1:200) and phosphatase inhibitor cocktail (1:100) and incubated at 100° C. for 15 minutes. Pellet suspensions were centrifuged as before and supernatants were saved as pellet fractions.
(§3) Gel electrophoresis and immunoblotting: Microtubule sedimentation fractions and MLC2 analysis samples were separated by electrophoresis through tris-glycine and tricine polyacrylamide gels, respectively, which were transferred to PVDF membranes. Membranes with microtubule sedimentation fractions and MLC2 analysis samples were blocked in 5% milk in TBST and in 5% BSA in TBST, respectively. After overnight incubation with primary antibody at 4° C., the membranes were washed and incubated with secondary antibody for 1 hour at room temperature. Primary antibodies included anti-α-tubulin (1:2,000, Thermo Fisher Scientific, PA529444), anti-acetylated tubulin (1:1,000, Sigma-Aldrich, T7451), anti-phospho MYL9 (1:200, Thermo Fisher Scientific, PA517727), and anti-β-actin (1:5,000, Sigma-Aldrich, A1978). Secondary antibodies included Goat anti-Rabbit HRP (Thermo Fisher Scientific, 31460; 1:10,000 for anti-α-tubulin; 1:5,000 for anti-phospho MYL9), and Goat anti-Mouse HRP (Thermo Fisher Scientific, 62-6520; 1:5,000 for anti-acetylated tubulin; 1:10,000-1:20,000 for anti-β-actin). Membranes were placed into Pierce™ ECL Western Blotting Substrate (Thermo Fisher Scientific, 32106). Autoradiography film was exposed to each membrane for various times to ensure acquisition of non-saturated exposures. Band intensities were quantified from scanned films by densitometry using ImageJ.

FH-B cells [6] = assay: Microtubule sedimentation assay; assay type: cell-based, human
Procedure: as §2, §3

FH-B cells [7] = assay: Cell motility tracking; assay type: cell-based, human; conditions: thymidine block, 4 μM FQI1
Procedure: (§4) Cell motility tracking: After overnight seeding in high μ-dishes, cells were synchronized by incubating in 2 mM thymidine for 18-20 hours. Thereafter, cells were treated with 4 μM FQI1 or vehicle (0.01% DMSO) for 1 hour, followed by a 10-min incubation in NucSpot® Live 650 dye (Biotium, 40082) following the manufacturer's instructions. Subsequently, cells were imaged every 2 minutes for 2 hours in an environmental chamber of a Nikon C2 Si microscope at 37° C. and 5% CO2 at 20× magnification. Cells that underwent mitosis during the 2-hour period were excluded from the analysis. Using ImageJ, individual nuclei were monitored using the Manual Tracking tool and the distances between starting and end points were integrated into swarmplots using Python's seaborn library.

RPE cells [8] = assay: Cell motility tracking; assay type: cell-based; conditions: thymidine block, 4 μM FQI1; not statistically significant
Procedure: as §4

[9] = 4 μM FQI1 (15- and 30-minute pellets), 1 μM nocodazole or taxol 30 minutes

| SMILES | decrease in cell spreading (FH-B cells [1]; 200 nM FQI2-34, 30 minutes, vs vehicle) [fold] | fold lower concentration than the effective concentrations for FQI1 (cell compaction) (FH-B cells [1]; 200 nM FQI2-34 vs 4 μM FQI1) [fold] | Wnt activity at baseline ([2]; 0.1 μM up to 20 μM) | concentrations that suppressed Wnt activity induced by lithium chloride [2] [µM] | cells with a 4n DNA content (RPE cells [3]) [%] | cell spreading area (RPE cells [4]; 4 μM FQI1, 1 hour) | circularity (RPE cells [4]; 4 μM FQI1 or 1 μM nocodazole, 1 hour) | time after addition at which a drop in pelleted tubulin is observed (RPE cells [5]; 4 μM FQI1) [min] | microtubule stability and α-tubulin acetylation in the microtubule fraction (RPE cells [5]; [9]) | time after addition at which a drop in pelleted tubulin is observed (FH-B cells [6]; 4 μM FQI1) [min] | microtubule stability and α-tubulin acetylation in the microtubule fraction (FH-B cells [6]; [9]) | effect of FQI1 on cell spreading area after taxol pretreatment (FH-B cells [1]; 1 μM taxol 30 minutes, then 4 μM FQI1) | reduction in cell spreading area (FH-B cells [1]; 4 μM FQI1, 30-60 minutes, vs vehicle) [fold] | reduction in cell spreading area (FH-B cells [1]; Y-27632 pretreatment 30 minutes, then 4 μM FQI1 30 minutes) [fold] | decrease in median cell spreading area (FH-B cells [1]; vehicle pretreatment 30 minutes, then 4 μM FQI1 10 or 30 minutes) [fold] | reduction in cell spreading area (FH-B cells [1]; vehicle pretreatment (control group of Y-27632 experiment), 4 μM FQI1 30 minutes) [fold] | cell displacement over a 2-hour period (FH-B cells [7]) | cell displacement over a 2-hour period (RPE cells [8]) |
| --- | --- | --- | --- | --- | --- | --- | --- | --- | --- | --- | --- | --- | --- | --- | --- | --- | --- | --- |
| CCOc1cc(N(C)C)ccc1-c1cc(=O)[nH]c2cc3c(cc12)OCO3 [FQI2-34, 8-(4-(dimethylamino)-2-ethoxyphenyl)-[1,3]dioxolo[4,5-g]quinolin-6(5H)-one] | 2.1 | 20 | inhibited Wnt activity in a monotonically decreasing manner | ≥ 0.1 | – | – | – | – | – | – | – | – | – | – | – | – | – | – |
| CCOc1ccccc1C1CC(=O)Nc2cc3c(cc21)OCO3 (stereo not drawn) [FQI1, 8-(2-ethoxyphenyl)-7,8-dihydro-[1,3]dioxolo[4,5-g]quinolin-6(5H)-one] | – | – | – | – | ~30 | did not respond to FQI1 with significant change in cell spreading area | significantly more circular in shape | 1 | increase in the amount of acetylated α-tubulin in the microtubule fraction | 1 | increase in the amount of acetylated α-tubulin in the microtubule fraction | no detectable effect | 1.7 | 1.2 | 1.5 | 1.6 | significantly smaller range of motion | clear trend towards motility being reduced |
